Assay results as given in the supplement of paper PMC6045584.
± gives the standard deviation of the averaged measurements.

Tests used:
MK-1775 = compound: C=CCn1c(=O)c2cnc(Nc3ccc(N4CCN(C)CC4)cc3)nc2n1-c1cccc(C(C)(C)O)n1 [MK-1775]; experiment: surviving fraction relative to DMSO-only wells; higher = less growth inhibition; conditions: exposure time: 5 days
In short: (§1)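 Lines were retained only if, across three screens, replicate Pearson r was >0.7 and median Z' was >0.3. Viability was measured as CellTiter-Glo luminescence and reported as surviving fraction relative to the median of DMSO-only wells. Readings followed 10 minutes at room temperature, after log-phase tumour cells seeded at 250–500 per well in 384-well plates had been exposed, from 24 hours after seeding, continuously for five days to inhibitors at 0.5, 1, 5, 10, 50, 100, 500 and 1000 nM.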

BLEOMYCIN = compound: Cc1c(N)nc([C@H](CC(N)=O)NC[C@H](N)C(N)=O)nc1C(=O)N[C@H](C(=O)N[C@H](C)[C@@H](O)[C@H](C)C(=O)N[C@H](C(=O)NCCc1nc(-c2nc(C(=O)NCCC[S+](C)C)cs2)cs1)[C@@H](C)O)[C@@H](OC1OC(CO)C(O)C(O)C1OC1OC(CO)C(O)C(OC(N)=O)C1O)c1cnc[nH]1 [BLEOMYCIN]; experiment: as above; conditions: exposure time: 5 days
In short: as §1

Test System | surviving fraction (MK-1775; 0.5 nM) | surviving fraction (MK-1775; 1 nM) | surviving fraction (MK-1775; 5 nM) | surviving fraction (MK-1775; 10 nM) | surviving fraction (MK-1775; 50 nM) | surviving fraction (MK-1775; 100 nM) | surviving fraction (MK-1775; 500 nM) | surviving fraction (MK-1775; 1000 nM) | surviving fraction (BLEOMYCIN; 0.5 nM) | surviving fraction (BLEOMYCIN; 1 nM) | surviving fraction (BLEOMYCIN; 5 nM) | surviving fraction (BLEOMYCIN; 10 nM) | surviving fraction (BLEOMYCIN; 50 nM) | surviving fraction (BLEOMYCIN; 100 nM) | surviving fraction (BLEOMYCIN; 500 nM) | surviving fraction (BLEOMYCIN; 1000 nM)
PCI30 HEADNECK | 0.926 ± 0.1 | 0.937 ± 0.054 | 1.03 ± 0.036 | 1.05 ± 0.16 | 0.884 ± 0.069 | 0.745 ± 0.021 | 0.195 ± 0.02 | 0.137 ± 0.0085 | 0.917 ± 0.054 | 0.887 ± 0.054 | 0.942 ± 0.064 | 0.958 ± 0.04 | 0.655 ± 0.075 | 0.509 ± 0.048 | 0.32 ± 0.044 | 0.334 ± 0.033
RDES SOFT TISSUE | 1.17 ± 0.088 | 1.09 ± 0.12 | 1.1 ± 0.077 | 1.08 ± 0.13 | 0.871 ± 0.3 | 1.15 ± 0.18 | 0.406 ± 0.055 | 0.187 ± 0.036 | 0.743 ± 0.081 | 0.794 ± 0.28 | 0.732 ± 0.089 | 0.783 ± 0.096 | 0.985 ± 0.27 | 0.915 ± 0.09 | 0.947 ± 0.19 | 0.582 ± 0.2
S68 BREAST | 1.17 ± 0.41 | 1.18 ± 0.27 | 1.03 ± 0.11 | 0.848 ± 0.13 | 0.663 ± 0.093 | 0.329 ± 0.048 | 0.101 ± 0.008 | 0.0703 ± 0.011 | 0.907 ± 0.057 | 0.858 ± 0.22 | 1.04 ± 0.15 | 0.847 ± 0.44 | 1.14 ± 0.15 | 0.911 ± 0.1 | 0.56 ± 0.076 | 0.369 ± 0.083
SAOS2 BONE | 1.1 ± 0.019 | 1.01 ± 0.057 | 1.05 ± 0.091 | 1.07 ± 0.055 | 0.887 ± 0.033 | 0.637 ± 0.027 | 0.176 ± 0.024 | 0.06 ± 0.0087 | 0.8247 ± 0.0029 | 0.805 ± 0.068 | 0.856 ± 0.016 | 0.698 ± 0.11 | 0.968 ± 0.024 | 0.904 ± 0.063 | 0.685 ± 0.034 | 0.462 ± 0.054
SCC003 HEADNECK | 1.12 ± 0.07 | 1.08 ± 0.11 | 1.1 ± 0.12 | 1.11 ± 0.06 | 0.927 ± 0.026 | 0.874 ± 0.05 | 0.421 ± 0.08 | 0.247 ± 0.019 | 0.782 ± 0.088 | 0.787 ± 0.087 | 0.792 ± 0.076 | 0.822 ± 0.12 | 0.975 ± 0.012 | 0.934 ± 0.039 | 0.56 ± 0.05 | 0.457 ± 0.016
SCC36 HEADNECK | 1.05 ± 0.066 | 1.08 ± 0.12 | 1.18 ± 0.065 | 0.995 ± 0.053 | 0.906 ± 0.035 | 0.739 ± 0.037 | 0.323 ± 0.029 | 0.228 ± 0.021 | 0.763 ± 0.09 | 0.762 ± 0.064 | 0.726 ± 0.027 | 0.7173 ± 0.004 | 0.998 ± 0.081 | 0.907 ± 0.1 | 0.631 ± 0.011 | 0.499 ± 0.012
SCC47 HEADNECK | 1.01 ± 0.031 | 1.06 ± 0.025 | 1.11 ± 0.051 | 1.11 ± 0.08 | 0.992 ± 0.053 | 0.713 ± 0.047 | 0.238 ± 0.025 | 0.159 ± 0.014 | 0.907 ± 0.031 | 0.909 ± 0.046 | 0.917 ± 0.038 | 0.9 ± 0.019 | 0.843 ± 0.026 | 0.677 ± 0.047 | 0.466 ± 0.057 | 0.436 ± 0.035
SCC90 HEADNECK | 1.25 ± 0.31 | 1.2 ± 0.16 | 1.07 ± 0.078 | 1.12 ± 0.25 | 0.704 ± 0.034 | 0.355 ± 0.017 | 0.0583 ± 0.0068 | 0.0493 ± 0.011 | 0.933 ± 0.085 | 0.929 ± 0.061 | 0.94 ± 0.082 | 0.946 ± 0.018 | 1.06 ± 0.089 | 1.03 ± 0.085 | 0.885 ± 0.11 | 0.783 ± 0.044
SG27 HEADNECK | 1.04 ± 0.046 | 1.04 ± 0.11 | 1.08 ± 0.068 | 1.03 ± 0.11 | 0.969 ± 0.12 | 1.01 ± 0.14 | 0.853 ± 0.1 | 0.896 ± 0.061 | 1.12 ± 0.06 | 0.997 ± 0.085 | 0.934 ± 0.081 | 1.02 ± 0.011 | 0.949 ± 0.11 | 1.01 ± 0.17 | 1.01 ± 0.11 | 0.864 ± 0.14
SG28 HEADNECK | 0.987 ± 0.18 | 1.11 ± 0.066 | 1.14 ± 0.12 | 1.04 ± 0.046 | 0.698 ± 0.0084 | 0.549 ± 0.032 | 0.441 ± 0.034 | 0.558 ± 0.11 | 0.864 ± 0.081 | 0.917 ± 0.11 | 0.892 ± 0.056 | 0.907 ± 0.13 | 0.944 ± 0.074 | 0.899 ± 0.053 | 0.909 ± 0.028 | 0.868 ± 0.1
